Source: patent US4560689A, “Heterocyclic-fused pyrazolo-[3,4-d]pyridin-3-ones as benzodiazepine receptor modulators” (Ciba-Geigy Corporation, priority 1984, dated 1985)
Where a name gives a salt, the structure may show the parent alone.

What was measured:
[1] = tested on: benzodiazepine receptor; experiment: in vivo benzodiazepine receptor binding (3H-flunitrazepam); details: 30 mg/kg p.o. in the mouse
Experimental: In vivo benzodiazepine receptor binding is determined essentially as described in Eur. J. Pharmacol. 48, 213 (1978) and Nature 275, 551 (1978).
Test compounds in a corn starch vehicle are administered orally or intraperitioneally to mice or rats. Thirty minutes later, 3H-flunitrazepam(2 nmoles/Kg in saline) is injected into the tail vein, and the animals are sacrificed 20 minutes after injection of the flunitrazepam. The brains are then assayed by determining radioactivity in a liquid scintillation counter for binding of the radioligand to the receptors. A decrease in the binding of 3H-flunitrazepam in the drug-treated animals (as compared with the binding observed in animals treated with vehicle alone) is indicative of benzodiazepine receptor binding by the test compound.

[2] = target: benzodiazepine receptor; experiment: in vitro benzodiazepine receptor binding assay (tritiated diazepam displacement); details: inhibition of specific binding of 2 nM tritiated diazepam, membranes from rat fore-brain, 0°-5°, 30 minutes, pH 7.5
Experimental: The benzodiazepine receptor binding properties indicative of the nervous system regulatory activity of said new compounds are determined in the receptor binding assay in vitro, e.g. as described in Nature 266, 732 (1977) or Proc. Nat. Acad. Sci. USA 74, 3805 (1977). Diazepam binds specifically and with high affinity to crude synaptosomal membrane preparations from rat fore-brain. This binding is inhibited by other anxiolytic compounds. When tritiated diazepem is used, the interaction of other drugs with said receptor can be readily assessed thus: membranes from rat fore-brain are incubated at 0°-5° for 30 minutes with 2 nM tritiated diazepam and various concentrations of the test substance in a buffer medium maintained at pH 7.5. Solutions of the various concentrations of test substances are prepared by dilution of a 4.2 mM stock solution in dimethylacetamide-ethanol (1:10) with 50 mM pH7.5. Tris-HCl buffer. The membranes, containing the receptors with various amounts of tritiated diazepam, are filtered onto glass fiber filters, which are then analyzed in a liquid scintillation counter. The concentration of the compounds of this invention, required to inhibit the specific binding of 2 nM of tritiated diazepam by 50%, i.e. the IC50, is determined graphically.

IC50 [2] | SMILES | inhibits flunitrazepam binding in vivo [1]
– | O=c1c2c[nH]c3ccncc3c-2nn1-c1ccccc1 [Example 1, 2-phenyl-pyrazolo[4,3-c][1,6]naphthyridin-3(5H)-one] | about 75%
~0.2 nM | O=c1c2c[nH]c3ccncc3c-2nn1-c1ccc(Cl)cc1 [Example 2, 2-p-chlorophenyl-pyrazolo[4,3-c][1,6]naphthyridin-3(5H)-one] | –
~3 nM | O=c1c2c[nH]c3ccncc3c-2nn1-c1cccnc1 [Example 5a, 2-(3-pyridyl)pyrazolo[4,3-c][1,6]naphthyridin-3-(5H)-one hydrochloride] | –
~9 nM | O=c1c2c[nH]c3sccc3c-2nn1-c1ccc(Cl)cc1 [Example 9, 2-(4-chlorophenyl)-thieno[2,3-b]pyrazolo[3,4-d]pyridin-3(5H)-one hydrate] | –
